Measured values published in patent publication US6461833B1, “Method to detect bacteria” (priority 1995, dated 2002).
Read-outs that look alike come from different tables or passages of the source.

Assays:
BCG = type: cell-based, M. tuberculosis; settings: for number of plaques observed: 72 hours incubation with drug, M. tuberculosis
Mycobacterium smegmatis = type: cell-based; settings: for number of plaques observed: 72 hours incubation with drug, M. smegmatis
[1] = Isoniazid concentration 0.1 μg/ml
[2] = Isoniazid concentration 1.0 μg/ml
[3] = Isoniazid concentration 10 μg/ml
[4] = Rifampicin concentration 10 μg/ml
[5] = Rifampicin concentration 50 μg/ml
[6] = Rifampicin concentration 100 μg/ml

| Structure (SMILES) | number of plaques observed (BCG; [1]) | number of plaques observed (BCG; [2]) | number of plaques observed (BCG; [3]) | change in numbers of plaques (BCG; higher concentrations of isoniazid) | effect on cells judged from number of plaques versus no drug controls (BCG; lowest concentration of isoniazid) | number of plaques observed (Mycobacterium smegmatis; [1]) | number of plaques observed (Mycobacterium smegmatis; [2]) | number of plaques observed (Mycobacterium smegmatis; [3]) | effect on cells judged from numbers of plaques (Mycobacterium smegmatis; isoniazid, all concentrations, only a slight reduction at the highest concentration) | number of plaques observed (BCG; [4]) | number of plaques observed (BCG; [5]) | number of plaques observed (BCG; [6]) | number of plaques observed (Mycobacterium smegmatis; [4]) | number of plaques observed (Mycobacterium smegmatis; [5]) | number of plaques observed (Mycobacterium smegmatis; [6]) |
| --- | --- | --- | --- | --- | --- | --- | --- | --- | --- | --- | --- | --- | --- | --- | --- |
| NNC(=O)c1ccncc1 [Isoniazid, isoniazid] | 122 | 40 | 2 | marked reduction in the numbers of plaques | unaffected | ++ | ++ | + | mostly unaffected |  |  |  |  |  |  |
| CO[C@H]1/C=C/O[C@@]2(C)Oc3c(C)c(O)c4c(O)c(c(/C=N/N5CCN(C)CC5)c(O)c4c3C2=O)NC(=O)/C(C)=C\C=C\[C@H](C)[C@H](O)[C@@H](C)[C@@H](O)[C@@H](C)[C@H](OC(C)=O)[C@@H]1C [Rifampicin, rifampicin] |  |  |  |  |  |  |  |  |  | 4 | 4 | 10 | ++ | 50 | 8 |
